This note sets out measurements from patent US4778797A, “Organo-silicon compounds, process for the manufacture of same, and anti-tumor agent comprising the compound” (Sanwa Kagaku Kenkyusho Co., Ltd., priority 1984, dated 1988).

Assay [1] deals with B-16 melanoma. Description: Anti-tumor action to B-16 melanoma. Type of assay: in vivo, BDF1 female mice. The note with it: oral, tumor weight at 21st day; for inhibition in vivo at 100 mg/kg/day / inhibition in vivo at 200 mg/kg/day / inhibition in vivo at 400 mg/kg/day: Mus musculus, B16, 504 h, read-out: B-16 melanoma Inhibition ratio; for inhibition in vivo at 100 mg/kg/day: 100 mg/kg/day × 3; for inhibition in vivo at 200 mg/kg/day: 200 mg/kg/day × 3; for inhibition in vivo at 400 mg/kg/day: 400 mg/kg/day × 3. From the text:
B-16 melanoma (1×10^5 cells) was transplanted under skin of BDF1 female mice (age of about 5 weeks), and each of testing compounds was orally dosed at 1st, 5th and 9th day after the transplantation. At 21st day after the transplantation, the mice were killed to measure a weight of the cancerous tumor and to finally determine an inhibition ratio.

The test system of assay [2] is Colon-38 carcinoma. Description: Anti-tumor action to Colon-38 carcinoma. Type of assay: in vivo, BDF1 mice. The settings on record: oral, tumor weight at 28th day. The method, then:
0.02 ml of 10(W/V)% cell suspension prepared from a solid cancer cell (Colon-38 carcinoma) were transplanted under skin of BDF1 mice (20-21 g, age of about 5 weeks), and each of testing compounds was orally dosed to the mice at 1st, 5th and 9th day after the transplantation. A major and minor axes of the cancerous tumor were measured at 11th, 14th, 21st, 25th and 28th day after the transplantation to calcurate volume of the tumor in accordance with the following.
At 28th day from the transplantation, the mice were killed and each of the cancerous tumors was extracted to measure its weight and to determine an inhibitation ratio in comparison with a non-treated control group.

The subject of assay [3] is L-1210 leukemia. Description: Anti-tumor action to L-1210 leukemia. It is filed as in vivo, BDF1 female mice. The settings on record: Mus musculus, L1210, oral; for ILS at 250 mg/kg/day: 250 mg/kg/day × 3 (1st, 5th, 9th day); for ILS at 500 mg/kg/day: 500 mg/kg/day × 3 (1st, 5th, 9th day). The method, then:
L-1210 leukemia cell (1×10^5 cells) was transplanted in a abdominal cavity of BDF1 female mice (20-21 g, age of about 5 weeks), and each of testing compounds was orally dosed in 250 mg/kg or 500 mg/kg at 1st, 5th and 9th day after the transplantation to check days of life of the mice. [formula]

Where two headings read alike, the source gives them in different places.

Consider `C[Si](C)(CCSCCCNC(=O)n1cc(F)c(=O)[nH]c1=O)c1ccccc1` [Example 18, N-[3-[[2-(Dimethylphenylsilyl)ethyl]thio]propyl]-5-fluoro-3,4-dihydro-2,4-dioxo-1(2H)-pyrimidinecarboxamide], for which, in assay [1], the inhibition in vivo at 100 mg/kg/day stood at 55.2%, the inhibition in vivo at 200 mg/kg/day came out at 46.7% and the inhibition in vivo at 400 mg/kg/day stood at 29.6%. Besides, the inhibition in vivo at 328 mg/kg/day in assay [2] (Mus musculus, 672 h, 328 mg/kg/day × 3, read-out: colon-38 Inhibition ratio) was 71.3%.

For the compound `CCCC[Si](C)(C)CCSCCCNC(=O)n1cc(F)c(=O)[nH]c1=O` [Example 17, N-[3-[[2-(Butyldimethylsilyl)ethyl]thio]propyl]-5-fluoro-3,4-dihydro-2,4-dioxo-1(2H)-pyrimidinecarboxamide], in assay [1], the inhibition in vivo at 100 mg/kg/day came to 54.3%, the inhibition in vivo at 200 mg/kg/day was determined as 16.3% and the inhibition in vivo at 400 mg/kg/day amounted to 34.8%. Also, in assay [2] (Mus musculus, 672 h, 312 mg/kg/day × 3, read-out: colon-38 Inhibition ratio), the inhibition in vivo at 312 mg/kg/day turned out to be 97.4%.

Consider `CC(C)(C)[Si](C)(C)CCCSCCCNC(=O)n1cc(F)c(=O)[nH]c1=O` [Example 14, N-[3-[[3-(t-Butyldimethylsilyl)propyl]thio]propyl]-5-fluoro-3,4-dihydro-2,4-dioxo-1(2H)-pyrimidinecarboxamide], for which the results for the “B-16 melanoma Inhibition ratio” value in assay [1] (125 mg/kg/day × 3) and in assay [1] (250 mg/kg/day × 3) were 55.2% and 46.3%, respectively. The “colon-38 Inhibition ratio” value in assay [2] (323 mg/kg/day × 3) worked out at 90.1%. For the same compound, the figures for the ILS at 250 mg/kg/day in assay [3] (read-out: L-1210 ILS) and in assay [3] (read-out: L-1210 Judgement) were 19% and less than 25%, respectively. Besides, the ILS at 500 mg/kg/day in assay [3] (read-out: L-1210 ILS) was 68%; in assay [3] (read-out: L-1210 Judgement), 50 to 100%.

In the case of `C[Si](C)(CCCSCCCNC(=O)n1cc(F)c(=O)[nH]c1=O)c1ccccc1` [Example 16, N-[3-[[3-(Dimethylphenylsilyl)propyl]thio]propyl]-5-fluoro-3,4-dihydro-2,4-dioxo-1(2H)-pyrimidinecarboxamide], the figures for the “B-16 melanoma Inhibition ratio” value in assay [1] (125 mg/kg/day × 3) and in assay [1] (250 mg/kg/day × 3) were 82.2% and 70.5%, respectively. In addition, the “colon-38 Inhibition ratio” value in assay [2] (339 mg/kg/day × 3) was 97.9%. Also, the ILS at 250 mg/kg/day in assay [3] (read-out: L-1210 ILS) was 23%; in assay [3] (read-out: L-1210 Judgement), less than 25%. Further, the figures for the ILS at 500 mg/kg/day in assay [3] (read-out: L-1210 ILS) and in assay [3] (read-out: L-1210 Judgement) were 86% and 50 to 100%, respectively.

In the case of `CCCC[Si](C)(C)CCCSCCCNC(=O)n1cc(F)c(=O)[nH]c1=O` [Example 15, N-[3-[[3-(Butyldimethylsilyl)propyl]thio]propyl]-5-fluoro-3,4-dihydro-2,4-dioxo-1(2H)-pyrimidinecarboxamide], the “B-16 melanoma Inhibition ratio” value is recorded as 69.5% in assay [1] (125 mg/kg/day × 3) and 88.5% in assay [1] (250 mg/kg/day × 3). Also, the “colon-38 Inhibition ratio” value in assay [2] (323 mg/kg/day × 3) is reported as 92.3%. Besides, the values for the ILS at 250 mg/kg/day in assay [3] (read-out: L-1210 ILS) and in assay [3] (read-out: L-1210 Judgement) were 26% and 25 to 50%, respectively. The ILS at 500 mg/kg/day in assay [3] (read-out: L-1210 ILS) was 62%; in assay [3] (read-out: L-1210 Judgement) it was 50 to 100%.
